# Measurements published in patent publication US10231954B2, “Neurodegenerative therapies” (LYTIX BIOPHARMA AS, priority 2014, dated 2019).
# How the values were obtained:
# [1] = biological target: JNK1 (Homo sapiens, UniProt P45983); assay: Kinase profiling JNK1; format: biochemical
# Text: (§1) Any value less that 25 is considered to be highly significant inhibition.
# [2] = biological target: T1, PDK1 (Homo sapiens, UniProt O15530); assay: Kinase profiling PDK1; format: biochemical
# T1 sequence (O15530 1-556): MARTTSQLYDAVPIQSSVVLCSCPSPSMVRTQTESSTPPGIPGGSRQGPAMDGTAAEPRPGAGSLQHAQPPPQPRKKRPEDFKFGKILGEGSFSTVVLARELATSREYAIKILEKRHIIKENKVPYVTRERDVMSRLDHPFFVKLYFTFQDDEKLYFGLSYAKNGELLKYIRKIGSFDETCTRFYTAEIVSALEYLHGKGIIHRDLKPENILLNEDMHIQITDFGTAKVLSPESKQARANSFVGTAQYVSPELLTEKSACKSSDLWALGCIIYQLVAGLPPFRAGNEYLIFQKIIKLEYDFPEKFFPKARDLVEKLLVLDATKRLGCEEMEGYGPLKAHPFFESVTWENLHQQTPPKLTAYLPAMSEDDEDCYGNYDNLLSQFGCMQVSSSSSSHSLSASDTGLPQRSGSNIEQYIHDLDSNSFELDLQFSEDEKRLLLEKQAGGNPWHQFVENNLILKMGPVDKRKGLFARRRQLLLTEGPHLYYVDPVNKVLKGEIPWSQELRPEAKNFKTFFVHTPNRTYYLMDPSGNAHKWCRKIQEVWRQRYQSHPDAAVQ
# Text: as §1
# [3] = biological target: S6K1 (Homo sapiens, UniProt P23443); assay: Kinase profiling S6K1; format: biochemical
# Text: as §1
# [4] = biological target: CAMK1 (Homo sapiens, UniProt Q14012); assay: Kinase profiling CAMK1; format: biochemical
# Text: as §1
# [5] = biological target: T2, LKB1 (Homo sapiens, UniProt Q15831); assay: Kinase profiling LKB1; format: biochemical
# T2 sequence (Q15831 1-433): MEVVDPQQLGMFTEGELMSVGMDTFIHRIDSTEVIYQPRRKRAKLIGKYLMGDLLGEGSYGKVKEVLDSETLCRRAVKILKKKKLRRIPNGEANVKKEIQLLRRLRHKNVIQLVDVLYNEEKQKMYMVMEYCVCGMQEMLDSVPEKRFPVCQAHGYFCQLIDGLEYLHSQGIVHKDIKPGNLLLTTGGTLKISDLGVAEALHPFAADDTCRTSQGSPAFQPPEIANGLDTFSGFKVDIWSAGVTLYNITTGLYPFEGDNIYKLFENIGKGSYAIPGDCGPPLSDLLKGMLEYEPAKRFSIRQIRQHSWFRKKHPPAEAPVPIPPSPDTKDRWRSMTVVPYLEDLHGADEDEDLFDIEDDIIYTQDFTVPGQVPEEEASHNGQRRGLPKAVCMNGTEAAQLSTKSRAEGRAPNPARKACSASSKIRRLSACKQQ
# T2 sequence (Q7RTN6 1-431 partner): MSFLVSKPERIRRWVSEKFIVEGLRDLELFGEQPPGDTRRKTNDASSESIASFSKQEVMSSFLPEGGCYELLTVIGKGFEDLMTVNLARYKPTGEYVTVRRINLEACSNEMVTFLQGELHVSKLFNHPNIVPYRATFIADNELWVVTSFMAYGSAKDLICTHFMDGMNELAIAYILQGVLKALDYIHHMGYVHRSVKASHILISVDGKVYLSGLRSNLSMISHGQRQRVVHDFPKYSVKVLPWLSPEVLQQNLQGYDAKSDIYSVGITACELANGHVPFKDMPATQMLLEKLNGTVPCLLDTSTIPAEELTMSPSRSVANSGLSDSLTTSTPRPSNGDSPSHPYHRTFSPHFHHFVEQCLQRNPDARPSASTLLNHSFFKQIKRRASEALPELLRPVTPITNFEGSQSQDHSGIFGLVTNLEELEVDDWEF
# T2 sequence (Q9Y376 1-341 partner): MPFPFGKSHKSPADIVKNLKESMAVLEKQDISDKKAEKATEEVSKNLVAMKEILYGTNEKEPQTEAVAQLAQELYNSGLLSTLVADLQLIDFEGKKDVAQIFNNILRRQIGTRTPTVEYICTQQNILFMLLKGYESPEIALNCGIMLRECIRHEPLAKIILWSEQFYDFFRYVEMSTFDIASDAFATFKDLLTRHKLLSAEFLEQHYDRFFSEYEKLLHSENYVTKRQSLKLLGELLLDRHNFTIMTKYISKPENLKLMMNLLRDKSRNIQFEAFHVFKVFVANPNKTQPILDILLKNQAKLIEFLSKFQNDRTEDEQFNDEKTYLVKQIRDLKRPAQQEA
# Text: as §1
# [6] = test system: AMPK (hum); assay: Kinase profiling AMPK (hum); format: biochemical, human
# Text: as §1
# [7] = biological target: HIPK2 (Homo sapiens, UniProt Q9H2X6); assay: Kinase profiling HIPK2; format: biochemical
# Text: as §1
# [8] = biological target: Src (Homo sapiens, UniProt P12931); assay: Kinase profiling Src; format: biochemical
# Text: as §1
# [9] = biological target: JAK2 (Homo sapiens, UniProt O60674); assay: Kinase profiling JAK2; format: biochemical
# Text: as §1
# [10] = biological target: TrkA (Homo sapiens, UniProt P04629); assay: Kinase profiling TrkA; format: biochemical
# Text: as §1
# [11] = 100 micromolar inhibitor concentration, 100 is no change
# [12] = 100 micromolar inhibitor, 100 = no change
# JAK2, sequence (O60674 whole entry, species assumed): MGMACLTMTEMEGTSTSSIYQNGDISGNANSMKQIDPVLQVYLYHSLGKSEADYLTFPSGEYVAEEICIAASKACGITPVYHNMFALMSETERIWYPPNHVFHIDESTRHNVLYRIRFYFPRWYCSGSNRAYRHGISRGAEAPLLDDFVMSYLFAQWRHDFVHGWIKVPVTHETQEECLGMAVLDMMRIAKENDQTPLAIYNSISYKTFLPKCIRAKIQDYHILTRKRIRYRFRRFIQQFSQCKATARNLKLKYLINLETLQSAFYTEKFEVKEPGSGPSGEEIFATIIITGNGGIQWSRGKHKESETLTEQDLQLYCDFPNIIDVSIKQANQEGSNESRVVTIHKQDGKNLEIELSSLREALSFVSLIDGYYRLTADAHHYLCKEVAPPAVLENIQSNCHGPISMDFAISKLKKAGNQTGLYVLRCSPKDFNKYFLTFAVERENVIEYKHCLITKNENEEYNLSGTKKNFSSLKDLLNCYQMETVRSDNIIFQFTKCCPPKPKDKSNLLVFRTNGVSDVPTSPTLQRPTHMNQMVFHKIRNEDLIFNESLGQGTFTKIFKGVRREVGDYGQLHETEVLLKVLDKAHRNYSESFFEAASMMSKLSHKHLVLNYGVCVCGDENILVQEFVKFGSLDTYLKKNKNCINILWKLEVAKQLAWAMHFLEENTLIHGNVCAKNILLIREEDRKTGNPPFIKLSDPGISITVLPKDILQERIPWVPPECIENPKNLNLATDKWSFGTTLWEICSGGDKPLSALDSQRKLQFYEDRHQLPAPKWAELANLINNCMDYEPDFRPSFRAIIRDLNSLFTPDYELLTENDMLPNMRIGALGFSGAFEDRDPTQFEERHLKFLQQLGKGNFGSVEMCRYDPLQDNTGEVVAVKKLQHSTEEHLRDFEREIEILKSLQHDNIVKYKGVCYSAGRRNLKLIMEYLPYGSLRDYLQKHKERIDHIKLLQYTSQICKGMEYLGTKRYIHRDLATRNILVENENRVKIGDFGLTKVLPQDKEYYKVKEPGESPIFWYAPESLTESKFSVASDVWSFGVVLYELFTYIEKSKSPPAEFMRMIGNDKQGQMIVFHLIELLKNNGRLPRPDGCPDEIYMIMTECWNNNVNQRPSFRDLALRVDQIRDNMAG
# JNK1, sequence (P45983 whole entry, species assumed): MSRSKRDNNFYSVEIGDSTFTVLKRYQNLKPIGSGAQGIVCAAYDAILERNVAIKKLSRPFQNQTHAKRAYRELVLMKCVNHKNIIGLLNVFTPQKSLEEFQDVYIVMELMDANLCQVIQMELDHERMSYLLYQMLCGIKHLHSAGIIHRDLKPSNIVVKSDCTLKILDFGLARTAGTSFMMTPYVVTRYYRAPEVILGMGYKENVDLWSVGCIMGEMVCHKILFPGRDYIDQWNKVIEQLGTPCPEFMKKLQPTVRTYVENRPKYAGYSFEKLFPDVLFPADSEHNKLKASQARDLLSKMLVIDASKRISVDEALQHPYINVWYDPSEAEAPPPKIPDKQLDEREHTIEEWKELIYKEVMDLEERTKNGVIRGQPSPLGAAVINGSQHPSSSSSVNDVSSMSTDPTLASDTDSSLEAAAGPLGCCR
# TrkA, sequence (P04629 33-796, species assumed): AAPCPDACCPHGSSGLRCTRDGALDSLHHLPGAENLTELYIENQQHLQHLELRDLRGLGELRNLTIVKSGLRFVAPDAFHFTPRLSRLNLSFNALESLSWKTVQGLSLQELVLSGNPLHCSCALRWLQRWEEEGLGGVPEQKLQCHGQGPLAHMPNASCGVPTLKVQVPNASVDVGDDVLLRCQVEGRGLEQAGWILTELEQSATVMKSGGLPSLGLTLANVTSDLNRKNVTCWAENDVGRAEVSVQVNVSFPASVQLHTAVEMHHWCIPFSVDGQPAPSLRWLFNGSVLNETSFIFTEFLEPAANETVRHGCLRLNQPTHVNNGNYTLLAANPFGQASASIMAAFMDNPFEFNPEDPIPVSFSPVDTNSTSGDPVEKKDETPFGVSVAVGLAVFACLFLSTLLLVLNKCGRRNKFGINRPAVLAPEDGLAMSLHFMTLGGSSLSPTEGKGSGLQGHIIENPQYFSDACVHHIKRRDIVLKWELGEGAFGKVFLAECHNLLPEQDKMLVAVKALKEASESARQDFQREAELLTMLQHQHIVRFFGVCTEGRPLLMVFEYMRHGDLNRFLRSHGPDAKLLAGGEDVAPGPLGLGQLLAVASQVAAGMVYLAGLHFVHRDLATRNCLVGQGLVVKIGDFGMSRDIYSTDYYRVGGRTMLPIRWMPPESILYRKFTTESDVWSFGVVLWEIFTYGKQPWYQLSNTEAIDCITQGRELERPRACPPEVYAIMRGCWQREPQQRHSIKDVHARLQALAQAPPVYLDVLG
# CAMK1, sequence (Q14012 whole entry, species assumed): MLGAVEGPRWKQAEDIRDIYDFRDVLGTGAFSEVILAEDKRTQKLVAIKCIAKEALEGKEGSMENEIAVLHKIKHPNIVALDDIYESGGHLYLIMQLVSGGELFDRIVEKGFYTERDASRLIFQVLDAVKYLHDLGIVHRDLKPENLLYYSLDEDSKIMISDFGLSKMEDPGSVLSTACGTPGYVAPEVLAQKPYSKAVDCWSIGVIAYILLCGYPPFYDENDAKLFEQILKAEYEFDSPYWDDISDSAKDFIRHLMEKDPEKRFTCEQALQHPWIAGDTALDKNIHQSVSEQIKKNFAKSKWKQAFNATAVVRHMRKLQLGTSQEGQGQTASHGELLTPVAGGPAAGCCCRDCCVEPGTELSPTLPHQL
# Src, sequence (P12931 whole entry, species assumed): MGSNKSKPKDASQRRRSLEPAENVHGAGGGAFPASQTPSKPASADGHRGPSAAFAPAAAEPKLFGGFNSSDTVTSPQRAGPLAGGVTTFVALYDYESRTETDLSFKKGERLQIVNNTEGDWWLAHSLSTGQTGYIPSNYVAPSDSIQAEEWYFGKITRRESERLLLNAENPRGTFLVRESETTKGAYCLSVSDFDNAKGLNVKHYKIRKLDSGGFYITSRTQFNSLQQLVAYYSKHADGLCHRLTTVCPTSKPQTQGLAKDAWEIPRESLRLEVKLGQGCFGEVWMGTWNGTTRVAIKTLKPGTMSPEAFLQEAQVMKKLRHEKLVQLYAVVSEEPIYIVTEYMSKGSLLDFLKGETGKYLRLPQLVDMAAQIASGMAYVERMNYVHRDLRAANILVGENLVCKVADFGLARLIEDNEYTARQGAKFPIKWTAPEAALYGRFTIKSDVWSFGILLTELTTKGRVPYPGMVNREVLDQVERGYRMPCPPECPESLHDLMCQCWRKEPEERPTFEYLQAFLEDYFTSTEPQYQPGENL
# HIPK2, sequence (Q9H2X6 whole entry, species assumed): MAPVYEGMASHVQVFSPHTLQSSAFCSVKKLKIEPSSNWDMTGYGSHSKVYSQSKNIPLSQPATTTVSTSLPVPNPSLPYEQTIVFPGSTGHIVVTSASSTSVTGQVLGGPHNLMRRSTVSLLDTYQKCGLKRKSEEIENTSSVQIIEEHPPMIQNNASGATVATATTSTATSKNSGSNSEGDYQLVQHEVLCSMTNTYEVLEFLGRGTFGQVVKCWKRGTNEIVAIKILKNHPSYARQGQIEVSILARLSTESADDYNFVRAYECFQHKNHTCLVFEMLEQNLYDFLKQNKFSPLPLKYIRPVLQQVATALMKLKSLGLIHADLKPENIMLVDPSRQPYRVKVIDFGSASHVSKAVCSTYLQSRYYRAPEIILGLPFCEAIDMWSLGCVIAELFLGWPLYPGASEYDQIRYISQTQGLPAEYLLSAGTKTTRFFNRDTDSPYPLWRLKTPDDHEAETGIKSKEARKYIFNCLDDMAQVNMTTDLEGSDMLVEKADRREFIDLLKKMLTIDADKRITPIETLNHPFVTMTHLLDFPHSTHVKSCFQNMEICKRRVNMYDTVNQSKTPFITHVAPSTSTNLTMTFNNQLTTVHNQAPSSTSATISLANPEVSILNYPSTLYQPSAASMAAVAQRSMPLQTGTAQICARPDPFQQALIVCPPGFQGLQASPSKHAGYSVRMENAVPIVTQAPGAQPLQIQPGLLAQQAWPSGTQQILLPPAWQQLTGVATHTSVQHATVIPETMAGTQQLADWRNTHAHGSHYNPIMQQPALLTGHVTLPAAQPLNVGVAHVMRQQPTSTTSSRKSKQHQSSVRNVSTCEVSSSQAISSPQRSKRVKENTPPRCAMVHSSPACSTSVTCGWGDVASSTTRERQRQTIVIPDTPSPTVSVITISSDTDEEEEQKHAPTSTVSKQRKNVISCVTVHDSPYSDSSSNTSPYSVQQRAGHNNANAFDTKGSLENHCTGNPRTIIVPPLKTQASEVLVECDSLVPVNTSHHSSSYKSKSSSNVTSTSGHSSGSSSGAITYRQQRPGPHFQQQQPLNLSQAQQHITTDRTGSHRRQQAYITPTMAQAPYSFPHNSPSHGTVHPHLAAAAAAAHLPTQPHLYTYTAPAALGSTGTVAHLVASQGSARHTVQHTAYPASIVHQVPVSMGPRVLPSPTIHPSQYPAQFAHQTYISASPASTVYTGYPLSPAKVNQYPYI
# S6K1, sequence (P23443 whole entry, species assumed): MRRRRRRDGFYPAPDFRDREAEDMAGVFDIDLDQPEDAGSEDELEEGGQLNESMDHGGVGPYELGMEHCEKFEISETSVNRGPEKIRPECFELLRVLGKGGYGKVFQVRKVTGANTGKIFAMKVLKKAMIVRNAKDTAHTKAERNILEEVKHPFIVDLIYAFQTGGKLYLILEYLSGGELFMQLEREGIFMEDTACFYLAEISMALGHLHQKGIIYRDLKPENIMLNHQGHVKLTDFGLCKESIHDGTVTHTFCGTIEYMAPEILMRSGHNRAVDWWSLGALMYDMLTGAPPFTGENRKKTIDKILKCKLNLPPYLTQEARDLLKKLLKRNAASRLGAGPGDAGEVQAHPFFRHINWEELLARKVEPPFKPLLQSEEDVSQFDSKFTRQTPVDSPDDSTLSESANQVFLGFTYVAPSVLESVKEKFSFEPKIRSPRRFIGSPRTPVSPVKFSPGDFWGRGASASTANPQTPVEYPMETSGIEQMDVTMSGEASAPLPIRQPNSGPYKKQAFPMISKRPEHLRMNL
Structure (SMILES),"residual kinase activity, JNK1 [1, 11]","residual kinase activity, PDK1 [2, 11]","residual kinase activity, S6K1 [3, 11]","residual kinase activity, CAMK1 [4, 11]","residual kinase activity, LKB1 [5, 11]","residual kinase activity, AMPK (hum) [6, 11]","residual kinase activity, HIPK2 [7, 11]","residual kinase activity, Src [8, 11]","residual kinase activity, JAK2 [9, 11]","residual kinase activity, TrkA [10, 11]",other results
O=C(Nc1nc2ccc(F)cc2s1)c1ccccc1 [Compound 03-92],94,91,79,97,100,76,78,74,109,74,
CC(=O)Nc1nc2ccc(F)cc2s1 [Compound 03-94],82,87,67,86,46,59,27,76,49,58,
O=C(Nc1nc2cc(O)ccc2s1)c1ccccc1 [Compound 03-102],83,74,42,72,33,49,36,30,47,38,
COc1ccc2nc(C(=O)Nc3ccccc3)sc2c1 [Compound 13-03],,,,,,,,,,,"residual kinase activity, JNK1 [1, 12]: 88; residual kinase activity, PDK1 [2, 12]: 113; residual kinase activity, S6K1 [3, 12]: 90; residual kinase activity, CAMK1 [4, 12]: 94; residual kinase activity, LKB1 [5, 12]: 110; residual kinase activity, AMPK (hum) [6, 12]: 99; residual kinase activity, HIPK2 [7, 12]: 96; residual kinase activity, Src [8, 12]: 100; residual kinase activity, JAK2 [9, 12]: 93; residual kinase activity, TrkA [10, 12]: 55"
N#Cc1ccc2nc(NC(=O)c3ccccc3)sc2c1 [Compound 03-106],84,106,78,69,107,80,62,85,87,66,
COc1cccc(NC(=O)Nc2nc3cc(O)ccc3s2)c1 [Compound 13-62],,,,,,,,,,,"residual kinase activity, JNK1 [1, 12]: 114; residual kinase activity, PDK1 [2, 12]: 77; residual kinase activity, S6K1 [3, 12]: 22; residual kinase activity, CAMK1 [4, 12]: 8; residual kinase activity, LKB1 [5, 12]: 91; residual kinase activity, AMPK (hum) [6, 12]: 23; residual kinase activity, HIPK2 [7, 12]: 23; residual kinase activity, Src [8, 12]: 7; residual kinase activity, JAK2 [9, 12]: 31; residual kinase activity, TrkA [10, 12]: 9"
COC(=O)c1cccc(C(=O)Nc2nc3ccc(F)cc3s2)c1 [Compound 03-110],98,123,91,99,92,69,66,178,89,111,
COc1ccc2sc(NC(=O)c3cccc(C(N)=O)c3)nc2c1 [Compound 03-113],86,101,79,102,95,96,96,79,113,87,
O=C(Nc1nc2ccc(C(F)(F)F)cc2s1)c1ccccc1 [Compound 03-99],86,84,86,84,103,73,90,87,87,84,
COc1ccc2nc(NC(=O)c3ccccc3)sc2c1 [Compound 03-98],95,101,76,68,118,94,41,172,81,60,
CC(=O)Nc1nc2ccc([N+](=O)[O-])cc2s1 [Compound 13-10],,,,,,70,,,,,"remaining activity at 100 µM ([1]; 100 micromolar inhibitor concentration, 100 is no change, read-out: residual kinase activity, JNK1): 82%; remaining activity at 100 µM ([2]; 100 micromolar inhibitor concentration, 100 is no change, read-out: residual kinase activity, PDK1): 93%; remaining activity at 100 µM ([3]; 100 micromolar inhibitor concentration, 100 is no change, read-out: residual kinase activity, S6K1): 65%; remaining activity at 100 µM ([4]; 100 micromolar inhibitor concentration, 100 is no change, read-out: residual kinase activity, CAMK1): 84%; remaining activity at 100 µM ([5]; 100 micromolar inhibitor concentration, 100 is no change, read-out: residual kinase activity, LKB1): 73%; remaining activity at 100 µM ([7]; 100 micromolar inhibitor concentration, 100 is no change, read-out: residual kinase activity, HIPK2): 8%; remaining activity at 100 µM ([8]; 100 micromolar inhibitor concentration, 100 is no change, read-out: residual kinase activity, Src): 85%; remaining activity at 100 µM ([9]; 100 micromolar inhibitor concentration, 100 is no change, read-out: residual kinase activity, JAK2): 91%; remaining activity at 100 µM ([10]; 100 micromolar inhibitor concentration, 100 is no change, read-out: residual kinase activity, TrkA): 98%"
COC(=O)c1cccc(C(=O)Nc2nc3cc(OC)ccc3s2)c1 [Compound 03-108],93,101,95,96,90,101,87,169,85,85,
COc1ccc2sc(NC(=O)c3ccccc3)nc2c1 [Compound 03-95],90,89,77,76,72,75,74,77,86,35,
